Values joined by “and” are separate entries in the source; they are usually repeats but may differ in a detail not shown here. Equal values may be shown once. Where a name gives a salt, the structure may show the parent alone.

One test relates to N2 non-transgenic worms. Kind of test: Screen of putative NALCN antagonists by motor behavior, N2 control worms on compound agar. Format: in vivo, C. elegans. The protocol:
(§1) Compounds were dissolved in the vehicle in which they were the most soluble (DMSO or molecular grade water). […] Microwave to dissolve (note: this will boil over rapidly). The screen is performed in a 24-well flat-bottom plate. […] Proceed to next step quickly. […] Immediately begin mixing with pipette tip until the compound dissolves (at this point the mixture should be clear). Fill the remainder of the plate (I usually prepare duplicate wells for each compound) and cover with aluminum foil to protect the compounds from light. Leave at room temperature overnight to allow the plate to dry before screening. […] Prepare at least 4 small plates for each line. […] Pick a line to start with. […] Start timing as soon as a well has been filled. […] Touch the tail of each worm gently with a platinum wire to promote motion. Record any observations. (I like to record the proportion of worms that retain the original phenotype, the proportion that show full body paralysis/death, and the proportion that show paralysis of the neck only).

A further test has as its system Outward K+ currents. The test is described as follows: Electrophysiology tests, whole-cell recording of E16 embryonic cortical neurons. Format: cell-based. Particulars: mouse E16 cortical neurons, ramp −60~+80 mV, quantified at +80 mV (figure legends). How it is done:
Briefly, the cerebral cortex was isolated from embryos of E16 pregnant mouse (C57/BL6) and cut into small cubes. After being digested in 0.05% Trypsin for 25-30 mins in 37° C. in incubator, the Trypsin was neutralized with 1-2 ml DMEM (containing 10% FBS. The pellets were then triturated with a pipette for 10-15 time and then diluted into plating media (DMEM with 10% FBS). The cell suspension was sieved through a […] nylon filter and plated onto cover slips coated with poly-D-lysine (PDL) in 35 mm dishes at density of 2×10^5 cells per dish. After culturing for 2 hrs in incubator, the plating media was replaced with the following media: Neurobasal media supplemented with 2% B27. Neurobasal media was changed every 3 days until the experiment start.
Membrane potentials of neurons were recorded in whole-cell configuration at 20° C.-22° C. in a mouse E16 embryonic cortical neuron preparation. The pipette solution contained (in mM): K-Gluconate 115; KCl 25; CaCl2) 0.1; MgCl2 5; BAPTA 1; HEPES 10; Na2ATP 5; Na2GTP 0.5; cAMP 0.5; cGMP 0.5, pH 7.2 with KOH, 320 mOsm. The bath solution consisted of (in mM): NaCl 150; KCl 5; CaCl2) 5; MgCl2 1; glucose 10; sucrose 5; HEPES 15, pH 7.3 with NaOH, 330 mOsm. For zero and 15 Na+ solution, extracellular Na+ ([Na+]o) was replaced with N-methyl-D-glucamine (NMDG+) or Tris+. RMP was recorded at 0 pA. […]

Test [1] deals with EG9152 GOF worms (C. elegans NALCN(gf) model). The test is described as follows: Screen of putative NALCN antagonists by motor behavior, GOF worms on compound agar. Format: in vivo. How it is done: as §1

As to `CCOC(=O)C1=C(COCCN)NC(C)=C(C(=O)OC)C1c1ccccc1Cl` (centres unmarked) [Amlodipine Besylate, Amlodipine], the “proportion of worms: “rescue” (slight but present)” value with N2 non-transgenic worms (1.25 mM, 30 mins, Trial 4) is given as 30 mins: 50%. In addition, in the test on N2 non-transgenic worms (1.25 mM, 1 hr, Trial 4), the “proportion of worms: WT(N2)” value was 10% WT(N2) and the “proportion of worms: rescue” value was 1 hr: 90% rescue,. In the test with Outward K+ currents, the “effect on Outward K+ currents” value is recorded as “blocked”. In test [1] (1.25 mM, 30 mins, Trial 4), the “proportion of worms: GOF” value was “rescue, 36% GOF” and the “proportion of worms: rescue” value is 30 mins: 64%. Moreover, in test [1] (1.25 mM, 1 hr, Trial 4), the “proportion of worms: GOF” value was determined as 27%, the “proportion of worms: LOF” value was 9% and the “proportion of worms: rescue” value is 1 hr: 64% rescue,.
For `CCOC(=O)c1ccc(N)cc1` [Benzocaine], in the test on N2 non-transgenic worms (2.4 mM, 20 min, Trials 3-4), the “proportion of worms: N2” value is 20 min: 28% N2, and 20 min: 27% N2,. Besides, the “proportion of worms: sluggish N2” value in the test on N2 non-transgenic worms (4.71 mM, 30 min, Trial 2) is listed as 30 min: 18%. Moreover, the “proportion of worms: LOF” value is listed as 1 hr: 100% in the test on N2 non-transgenic worms (4.71 mM, 1 hr, Trials 1-2) and 1 hr: 100% in test [1] (4.71 mM, 1 hr, Trials 1-2). For the same molecule, the “proportion of worms: rescue” value in test [1] (2.4 mM, 20 min, Trials 3-4) is 20 min: 40% and 20 min: 33%; in test [1] (2.4 mM, 40 min, Trials 3-4), 40 min: 8% and 40 min: 11%; in test [1] (4.71 mM, 30 min, Trials 1-2), 30 min: 38% and 30 min: 8%. Moreover, in test [1] (4.71 mM, 30 min, Trial 1), the “Rescue worms still move fairly ...” value is recorded as “quickly”. In addition, the “amplitude of body bends overall” value in test [1] (4.71 mM, 30 min, Trial 1) is listed as “Reduced”. In test [1] (remark for the trials at 4.71 mM and 2.4 mM), the “paralysis of neck and reduced body bend amplitude but not as obvious a phenotype as Verapamil” value is recorded as “Show”.
Consider `COc1cc2c3cc1Oc1c(OC)c(OC)cc4c1[C@@H](Cc1ccc(O)c(c1)Oc1ccc(cc1)C[C@@H]3N(C)CC2)N(C)CC4` [Berbamine dihydrochloride, Berbamine], for which, in the test on N2 non-transgenic worms (4.4 mM, 30 min, Trial 1), the response is on record as 30 min: No. Further, the “proportion of worms: “rescue”” value in the test on N2 non-transgenic worms (4.4 mM, 30 min, Trials 2-3) was 30 min: 70% and 30 min: 30%. Moreover, the “phenotype proportions at 1 hr compared with 30 min” value in the test with N2 non-transgenic worms (4.4 mM, 1 hr, Trial 3) was 1 hr: no change; in test [1] (4.4 mM, 1 hr, Trials 2-3), 1 hr: no change. In addition, in test [1] (4.4 mM, 30 min, Trial 3), the “proportion of worms: LOF” value is “GOF, 25% LOF”. Further, the “proportion of worms: rescue” value in test [1] (4.4 mM, 30 min, Trials 1-3) is 30 min: 20% and 30 min: 70% and 30 min: 33%; in test [1] (4.4 mM, 1 hr, Trial 1) it was 1 hr: 50-60%.
As to `CN1CCOC(c2ccccc2)c2ccccc2C1` (centres unmarked) [Nefopam], the “proportion of worms: “rescue”” value with N2 non-transgenic worms (3.3 mM, 20 min, Trials 3-4) is 20 min: 15% and 20 min: 7%; in the test with N2 non-transgenic worms (6.65 mM, 20 min, Trials 1-2) it was 20 min: 9% and 20 min: 23%. Moreover, the “proportion of worms: LOF” value was 50 min: 100% with N2 non-transgenic worms (6.65 mM, 50 min, Trials 1-2); “rescue, 30%” in test [1] (3.3 mM, 20 min, Trial 3); 67% LOF in test [1] (3.3 mM, 40 min, Trial 3). For the same molecule, the “effect on Outward K+ currents” value with Outward K+ currents is reported as “blocked”. Further, the “proportion of worms: GOF” value is “rescue, 31% GOF” in test [1] (3.3 mM, 20 min, Trial 4) and “rescue, 8% GOF,” in test [1] (3.3 mM, 40 min, Trial 3). The “proportion of worms: rescue” value in test [1] (3.3 mM, 20 min, Trials 3-4) is 20 min: 70% and 20 min: 69%; in test [1] (3.3 mM, 40 min, Trials 3-4 (Trial 4: sluggish)) it was 40 min: 100% and 40 min: 25%; in test [1] (6.65 mM, 20 min, Trials 1-2) it was 20 min: 33% and 20 min: 90%; in test [1] (6.65 mM, 50 min, Trial 2), 50 min: 60%.

(Values after patent US20240423952A1, “COMPOSITIONS AND METHODS FOR TREATING CONGENITAL DISORDERS” (Ibagen Pharmaceuticals, Inc., priority 2021, published 2024).)
